Read-outs that look alike come from different tables or passages of the source. Where no end group is shown, it is not given here. [ ]: non-standard residue; d: D form. pY = N[C@@H](Cc1ccc(OP(=O)(O)O)cc1)C(=O)O
Legend:
STAT3 = target: T1, STAT3 (Homo sapiens, UniProt P40763); assay: AlphaScreen-based competitive binding assay, STAT3 SH2 domain vs FITC-GpYLPQTV; settings: for IC50: STAT3 wild-type (WT), read-out: STAT3 inhibition: IC50; for % of control, STAT3 AlphaScreen: WT
T1 construct: a truncated form of STAT3 (136-705) was constructed and chromatographically purified; made in house
T1 sequence (P40763 136-705): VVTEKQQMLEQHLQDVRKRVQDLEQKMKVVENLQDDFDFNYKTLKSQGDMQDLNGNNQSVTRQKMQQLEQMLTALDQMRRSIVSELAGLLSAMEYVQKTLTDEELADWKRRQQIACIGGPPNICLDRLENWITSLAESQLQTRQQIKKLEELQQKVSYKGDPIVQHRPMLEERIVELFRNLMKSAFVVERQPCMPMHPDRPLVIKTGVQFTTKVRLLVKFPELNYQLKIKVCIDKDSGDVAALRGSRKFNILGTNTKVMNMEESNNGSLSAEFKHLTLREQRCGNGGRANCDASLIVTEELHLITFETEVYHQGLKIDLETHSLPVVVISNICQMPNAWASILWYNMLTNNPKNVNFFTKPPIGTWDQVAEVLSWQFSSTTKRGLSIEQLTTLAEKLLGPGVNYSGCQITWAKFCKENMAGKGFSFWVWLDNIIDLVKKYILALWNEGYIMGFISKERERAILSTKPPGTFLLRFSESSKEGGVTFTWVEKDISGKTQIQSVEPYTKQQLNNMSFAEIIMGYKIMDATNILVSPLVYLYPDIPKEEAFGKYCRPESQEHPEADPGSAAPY
Text: (§1) AlphaScreen is an in vitro competitive binding test used to identify compounds that are able to inhibit the binding of proteins containing an SH2 domain to their corresponding phosphopeptides (5-carboxyfluorescein (FITC)-GpYLPQTV for STAT3 and FITC-GpYDKPHVL for STAT1) (Table 2).
(§2) AlphaScreen is a bead-based non-radioactive assay system for the detection of biomolecular interactions in a microtiter plate format. The binding of biological partners brings donor and acceptor beads into close proximity and, as a result, a fluorescent signal between 520 and 620 nm was produced. The AlphaScreen-based assays were performed in a final reaction volume of 25 μL of the assay buffer containing 10 mM HEPES–NaOH (pH 7.4), 50 mM NaCl, 1 mM EDTA (pH 8.0), 0.1% NP-40, and 10 ng/μL bovine serum albumin (BSA) in a 96-well microtiter plate at 25 °C. The pTyr peptide probes used in this study were 5-carboxyfluorescein (FITC)-GpYLPQTV for STAT3 and (FITC)-GpYDKPHVL for STAT1. Plasmid construction and protein expression were performed as previously described; the experimental method is briefly summarized as follows. Considering that the expression of the full-length protein is troublesome, a truncated form of STAT3 (136-705) was constructed and chromatographically purified (AKTA FPLC system; GE Healthcare Bio-Sciences, Piscataway, NJ, USA). The soluble STAT3 fraction was loaded on a HisTrap™ column (GE Healthcare Bio-Sciences) and eluted with an imidazole gradient (50 mM Tris–HCl pH 7.4, 300 mM NaCl, 0.2 mM EDTA, 0.1% (w/v) NP-40, 5 mM β-mercaptoethanol, 10% (v/v) glycerol, and 10–300 mM imidazole). An SDS-PAGE stained with Coomassie Brilliant Blue (CBB) was performed to check the purity of the protein (see Figure S71). Subsequently, the protein was dialyzed (10 mM HEPES-NaOH pH 7.4, 50 mM NaCl, 10 mM β-mercaptoethanol, 0.1 mM EGTA, 0.02% (w/v) NP-40, 0.2 mM phenylmethylsulphonyl fluoride (PMSF), and 10% (v/v) glycerol).
(§3) Firstly, 75 nM of each SH2-containing protein were incubated with the test compound (at the following concentrations: 1, 3, 10, and 30 µM) for 15 min. Each protein sample was then incubated for 90 min with 50 nM of its corresponding FITC-pTyr peptide and simultaneously mixed with streptavidin-coated donor beads and anti-FITC acceptor beads before detection at 570 nm using EnVison Xcite (PerkinElmer, Waltham, MA, USA).

STAT1 = target: T2, STAT1 (Homo sapiens, UniProt P42224); assay: AlphaScreen-based competitive binding assay, STAT1 vs FITC-GpYDKPHVL; settings: read-out: STAT1 inhibition: IC50
T2 sequence (P42224 1-750): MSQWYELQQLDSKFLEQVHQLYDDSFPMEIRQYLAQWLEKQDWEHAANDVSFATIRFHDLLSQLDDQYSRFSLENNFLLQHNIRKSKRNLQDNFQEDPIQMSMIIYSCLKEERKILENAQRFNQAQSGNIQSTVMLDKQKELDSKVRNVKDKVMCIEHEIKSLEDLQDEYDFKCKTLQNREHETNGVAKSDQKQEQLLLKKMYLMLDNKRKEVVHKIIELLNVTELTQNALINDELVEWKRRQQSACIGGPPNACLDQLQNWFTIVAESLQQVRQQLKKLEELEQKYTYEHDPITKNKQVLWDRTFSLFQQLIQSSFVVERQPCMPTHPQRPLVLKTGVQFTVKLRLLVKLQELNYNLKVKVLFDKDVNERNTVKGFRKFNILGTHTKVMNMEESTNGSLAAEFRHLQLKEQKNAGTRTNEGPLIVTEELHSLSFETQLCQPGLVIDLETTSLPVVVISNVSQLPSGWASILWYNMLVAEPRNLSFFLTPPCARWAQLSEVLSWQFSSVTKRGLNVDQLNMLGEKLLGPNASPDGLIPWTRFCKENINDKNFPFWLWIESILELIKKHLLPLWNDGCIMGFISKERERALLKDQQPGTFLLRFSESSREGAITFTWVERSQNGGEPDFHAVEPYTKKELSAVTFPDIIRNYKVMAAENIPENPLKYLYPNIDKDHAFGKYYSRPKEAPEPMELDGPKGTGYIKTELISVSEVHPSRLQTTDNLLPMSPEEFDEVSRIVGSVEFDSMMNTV
Text: as §1
as §2, with “The soluble STAT3 fraction was loaded on a HisTrap™ column (GE Healthcare Bio-Sciences) and eluted with an imidazole gradient (50 mM Tris–HCl pH 7.4, 300 mM NaCl, 0.2 mM EDTA, 0.1% (w/v) NP-40, 5 mM β-mercaptoethanol, 10% (v/v) glycerol, and 10–300 mM imidazole). An SDS-PAGE stained with Coomassie Brilliant Blue (CBB) was performed to check the purity of the protein (see Figure S71). Subsequently, the protein was dialyzed (10 mM HEPES-NaOH pH 7.4, 50 mM NaCl, 10 mM β-mercaptoethanol, 0.1 mM EGTA, 0.02% (w/v) NP-40, 0.2 mM phenylmethylsulphonyl fluoride (PMSF), and 10% (v/v) glycerol).” left out

Grb2 = Grb2 (Homo sapiens, UniProt P62993); assay: AlphaScreen-based assay, Grb2 (other SH2 domain-containing protein); format: binding; settings: 30 µM
Grb2, sequence (P62993 whole entry, species assumed, the tested form may be a part): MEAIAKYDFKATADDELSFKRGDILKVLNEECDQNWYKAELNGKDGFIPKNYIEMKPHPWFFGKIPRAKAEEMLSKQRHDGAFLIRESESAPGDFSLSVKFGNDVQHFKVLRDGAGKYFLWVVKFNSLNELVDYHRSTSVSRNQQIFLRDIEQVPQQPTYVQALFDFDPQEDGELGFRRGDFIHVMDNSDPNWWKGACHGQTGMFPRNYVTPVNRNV
Method: as §1, §3

STAT3 Cys468A = target: T3, STAT3 Cys468A (Homo sapiens, UniProt P40763, C468A); assay: AlphaScreen-based assay, STAT3 single-cysteine mutant Cys468A; format: binding; settings: for % of control, STAT3 AlphaScreen: Cys468A
T3 construct: a truncated form of STAT3 (136-705) was constructed and chromatographically purified; made in house
T3 sequence (P40763 136-705 C468A): as the sequence (P40763 136-705) above, with C333A counted along it
Method: (§4) Furthermore, to gain insight into the activity of compound 1, its interaction with the cysteine residues located in the vicinities of the SH2 domain (Figure 3) was investigated and evaluated by an AlphaScreen-based assay using different mutants (Table 3).
(§5) The same procedure was used to evaluate compound 1 activity versus STAT3 single-cysteine-residue mutants (Cys468A, Cys542A, Cys550A, Cys687A, and Cys712A). Briefly, 3 µL of compound 1 in DMSO (at 0.3, 1, 3, 10 and 30 µM concentration) were premixed with 1 µL of L-Cys in PBS and 16 µL of an AlphaScreen buffer. Then, the mixture was immediately (<5 min) mixed with the STAT3 mutant solution before adding the FITC-peptide.

STAT3 Cys542A = target: T4, STAT3 Cys542A (Homo sapiens, UniProt P40763, C542A); assay: AlphaScreen-based assay, STAT3 single-cysteine mutant Cys542A; format: binding; settings: for % of control, STAT3 AlphaScreen: Cys542A
T4 construct: a truncated form of STAT3 (136-705) was constructed and chromatographically purified; made in house
T4 sequence (P40763 136-705 C542A): as the sequence (P40763 136-705) above, with C407A counted along it
Method: as §4, §5

STAT3 Cys550A = target: T5, STAT3 Cys550A (Homo sapiens, UniProt P40763, C550A); assay: AlphaScreen-based assay, STAT3 single-cysteine mutant Cys550A; format: binding; settings: for % of control, STAT3 AlphaScreen: Cys550A
T5 construct: a truncated form of STAT3 (136-705) was constructed and chromatographically purified; made in house
T5 sequence (P40763 136-705 C550A): as the sequence (P40763 136-705) above, with C415A counted along it
Method: as §4, §5

STAT3 Cys687A = target: T6, STAT3 Cys687A (Homo sapiens, UniProt P40763, C687A); assay: AlphaScreen-based assay, STAT3 single-cysteine mutant Cys687A; format: binding; settings: for % of control, STAT3 AlphaScreen: Cys687A
T6 construct: a truncated form of STAT3 (136-705) was constructed and chromatographically purified; made in house
T6 sequence (P40763 136-705 C687A): as the sequence (P40763 136-705) above, with C552A counted along it
Method: as §4, §5

STAT3 Cys712A = target: T7, STAT3 Cys712A (Homo sapiens, UniProt P40763, C712A); assay: AlphaScreen-based assay, STAT3 single-cysteine mutant Cys712A; format: binding; settings: for % of control, STAT3 AlphaScreen: Cys712A
T7 construct: made in house
T7 sequence (P40763 whole entry C712A): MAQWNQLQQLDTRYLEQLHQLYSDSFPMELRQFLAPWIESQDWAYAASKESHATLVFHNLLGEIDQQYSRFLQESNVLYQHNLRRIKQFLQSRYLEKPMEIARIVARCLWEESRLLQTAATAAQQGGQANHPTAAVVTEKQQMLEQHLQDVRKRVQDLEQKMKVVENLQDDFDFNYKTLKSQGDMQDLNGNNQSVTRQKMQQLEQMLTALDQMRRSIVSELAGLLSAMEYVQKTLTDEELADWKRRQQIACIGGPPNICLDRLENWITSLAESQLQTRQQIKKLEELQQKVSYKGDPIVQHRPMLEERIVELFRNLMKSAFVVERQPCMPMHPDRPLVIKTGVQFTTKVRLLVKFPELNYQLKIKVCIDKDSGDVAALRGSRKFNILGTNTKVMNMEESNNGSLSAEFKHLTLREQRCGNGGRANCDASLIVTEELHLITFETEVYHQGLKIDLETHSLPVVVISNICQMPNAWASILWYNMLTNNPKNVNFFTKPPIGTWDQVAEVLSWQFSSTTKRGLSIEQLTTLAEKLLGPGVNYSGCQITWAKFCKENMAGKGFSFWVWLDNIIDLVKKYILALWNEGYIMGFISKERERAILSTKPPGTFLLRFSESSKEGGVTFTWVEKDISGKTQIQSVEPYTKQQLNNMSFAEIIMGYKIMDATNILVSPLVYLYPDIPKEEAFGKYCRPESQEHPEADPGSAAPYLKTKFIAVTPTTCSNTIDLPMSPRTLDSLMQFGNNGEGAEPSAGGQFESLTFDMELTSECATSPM
Method: as §4, §5

[1] = parameters: method as in doi:10.1039/P29840001851; settings: cited from earlier work
[2] = target: T8, truncated form of STAT3 (136-705) (UniProt P40763 136-705); assay: AlphaScreen or HTRF; same procedure with STAT3 single-cysteine mutants; compound 1 (0.3-30 µM) premixed with L-Cys in PBS and AlphaScreen buffer, mixed with the STAT3 mutant solution before adding the FITC-peptide; settings: both partners purified
T8 construct: STAT3, residues 136-705; also called STAT3 wild-type; source: plasmid construction and protein expression as previously described [52]; chromatographically purified (HisTrap column, imidazole gradient), dialyzed
T8 sequence (P40763 136-705): as the sequence (P40763 136-705) above

[3] = 30 µM, n.a.: not active, read-out: STAT3 % Inhibition (30 µM)

Molecule: Cc1cc2c(cc1C)NS(=O)(=O)N2 [Compound 1, 5,6-Dimethyl-1H,3H-2,1,3-benzothiadiazole-2,2-dioxide]
- inhibition at 30 µM (STAT3; [3]): 96.5 ± 1.1%
- IC50 (STAT3): 15.8 µM
- inhibition at 30 µM (STAT3; Table 1, AlphaScreen-based assay at 30 µM, STAT3-SH2 domain, read-out: % Inhibition): 96.5%
- % of control, STAT3 AlphaScreen (STAT3; [1] 1 μM): 98.6 % of control
- % of control, STAT3 AlphaScreen (STAT3; [1] 3 μM): 94.1 % of control
- % of control, STAT3 AlphaScreen (STAT3; [1] 10 μM): 72.4 % of control
- % of control, STAT3 AlphaScreen (STAT3; [1] 30 μM): 18.4 % of control
- IC50 (STAT1): > 50 µM
- inhibition versus Grb2 (Grb2): 23%
- % of control, STAT3 AlphaScreen (STAT3 Cys468A; [1] 1 μM): 111.8 % of control
- % of control, STAT3 AlphaScreen (STAT3 Cys468A; [1] 3 μM): 108.3 % of control
- % of control, STAT3 AlphaScreen (STAT3 Cys468A; [1] 10 μM): 101.1 % of control
- % of control, STAT3 AlphaScreen (STAT3 Cys468A; [1] 30 μM): 79.7 % of control
- IC50 (STAT3 Cys468A; mutated Cys468A): > 30 µM
- % of control, STAT3 AlphaScreen (STAT3 Cys542A; [1] 1 μM): 102.5 % of control
- % of control, STAT3 AlphaScreen (STAT3 Cys542A; [1] 3 μM): 101.3 % of control
- % of control, STAT3 AlphaScreen (STAT3 Cys542A; [1] 10 μM): 98.1 % of control
- % of control, STAT3 AlphaScreen (STAT3 Cys542A; [1] 30 μM): 92.3 % of control
- IC50 (STAT3 Cys542A; mutated Cys542A): > 30 µM
- % of control, STAT3 AlphaScreen (STAT3 Cys550A; [1] 1 μM): 132.9 % of control
- % of control, STAT3 AlphaScreen (STAT3 Cys550A; [1] 3 μM): 136.0 % of control
- % of control, STAT3 AlphaScreen (STAT3 Cys550A; [1] 10 μM): 135.2 % of control
- % of control, STAT3 AlphaScreen (STAT3 Cys550A; [1] 30 μM): 124.7 % of control
- IC50 (STAT3 Cys550A; mutated Cys550A): > 30 µM
- % of control, STAT3 AlphaScreen (STAT3 Cys687A; [1] 1 μM): 93.3 % of control
- % of control, STAT3 AlphaScreen (STAT3 Cys687A; [1] 3 μM): 89.7 % of control
- % of control, STAT3 AlphaScreen (STAT3 Cys687A; [1] 10 μM): 78.3 % of control
- % of control, STAT3 AlphaScreen (STAT3 Cys687A; [1] 30 μM): 51.9 % of control
- IC50 (STAT3 Cys687A; mutated Cys687A): > 30 µM
- % of control, STAT3 AlphaScreen (STAT3 Cys712A; [1] 1 μM): 113.4 % of control
- % of control, STAT3 AlphaScreen (STAT3 Cys712A; [1] 3 μM): 112.4 % of control
- % of control, STAT3 AlphaScreen (STAT3 Cys712A; [1] 10 μM): 110.5 % of control
- % of control, STAT3 AlphaScreen (STAT3 Cys712A; [1] 30 μM): 108.0 % of control
- IC50 (STAT3 Cys712A; mutated Cys712A): > 30 µM
- melting point: 148 °C
- pKa [1]: 6.88 ± 0.03

Molecule: O=[N+]([O-])c1ccc2c(c1)NS(=O)(=O)N2 [Compound 1d, 5-Nitro-1H,3H-2,1,3-benzothiadiazole-2,2-dioxide]
- inhibition at 30 µM (STAT3; [3]): 56.9 ± 3.6%
- IC50 (STAT3): 25.1 µM
- IC50 (STAT1): 15.9 µM

B1: 5-carboxyfluorescein (FITC)-GpYLPQTV (peptide)
peptide: G[pY]LPQTV
modifications: not fully specified (N-terminus)
notes: also called pTyr peptide probe for STAT3; phosphotyrosine peptide
- binding result [2]: binds
